Reference: the NIST ThermoML archive (doi:10.1016/j.tca.2016.07.005)
± gives the expanded uncertainty stated by the source.

Key:
[1] = 101.3 kPa, Liquid; for viscosity: Concentric cylinders viscometry; for mass density: Vibrating tube method
[2] = xn = mol fraction of the nth substance listed; details: 101.3 kPa, Liquid, x1 = 1; for viscosity: Concentric cylinders viscometry; for mass density: Vibrating tube method

CCCC[n+]1ccn(C)c1.O=S(=O)([N-]S(=O)(=O)C(F)(F)F)C(F)(F)F
[1]
Details	mass density [kg/m3]	viscosity [mPa·s]
293.15 K	1441.2 ± 2.1	64 ± 6.4
298.15 K	1436.4 ± 2.1	49.5 ± 5
303.15 K	1431.5 ± 2.1	39 ± 3.9
313.15 K	1421.9 ± 2.1	26.7 ± 2.7
323.15 K	1412.4 ± 2.1	20.1 ± 2
333.15 K	1402.9 ± 2.1	15.5 ± 1.6
343.15 K	1393.5 ± 2.1	12.4 ± 1.2

CCCC[n+]1ccn(C)c1.O=S(=O)([N-]S(=O)(=O)C(F)(F)F)C(F)(F)F + O=S1(=O)CCCC1
[2]
Details	mass density [kg/m3]	viscosity [mPa·s]
293.15 K	1441.2 ± 2.1	64 ± 6.4
298.15 K	1436.4 ± 2.1	49.5 ± 5
303.15 K	1431.5 ± 2.1	39 ± 3.9
313.15 K	1421.9 ± 2.1	26.7 ± 2.7
323.15 K	1412.4 ± 2.1	20.1 ± 2
333.15 K	1402.9 ± 2.1	15.5 ± 1.6
343.15 K	1393.5 ± 2.1	12.4 ± 1.2

OCC(O)CO [glycerol]
[1]
Details	mass density [kg/m3]	viscosity [mPa·s]
313.15 K	1249 ± 2	303 ± 31
323.15 K	1242.4 ± 2	139.3 ± 14
333.15 K	1235.7 ± 2	85.5 ± 8.6
343.15 K	1228.9 ± 2	50.5 ± 5.1
353.15 K	1221.9 ± 2	31.2 ± 3.1
363.15 K	1214.8 ± 2	19.9 ± 2

OCC(O)CO [glycerol] + O=S1(=O)CCCC1
[2]
Details	mass density [kg/m3]	viscosity [mPa·s]
313.15 K	1249 ± 2	303 ± 31
323.15 K	1242.4 ± 2	139.3 ± 14
333.15 K	1235.7 ± 2	85.5 ± 8.6
343.15 K	1228.9 ± 2	50.5 ± 5.1
353.15 K	1221.9 ± 2	31.2 ± 3.1
363.15 K	1214.8 ± 2	19.9 ± 2

O=S1(=O)CCCC1 [sulfolane]
[1]
Details	mass density [kg/m3]	viscosity [mPa·s]
298.15 K	1266.4 ± 2	11.9 ± 1.2
303.15 K	1259.4 ± 2	10.5 ± 1.1
313.15 K	1251.7 ± 2	8.1 ± 0.8
323.15 K	1244 ± 2	6.4 ± 0.6
333.15 K	1235.4 ± 2	5.2 ± 0.5
343.15 K	1225 ± 2	4.3 ± 0.4
353.15 K	1215 ± 2	3.7 ± 0.4
363.15 K	1206 ± 2	3.2 ± 0.3
